Test results reported in patent publication US20120029187A1, “HALOALKYLSULFONANILIDE DERIVATIVE” (Nissan Chemical Industries, Ltd., priority 2009, published 2012).

Tests used:
Format in all cases: in vivo
common lambsquater [1] = assay: Test Example 4: herbicidal effect in foliage treatment; conditions: dose 3.2 g/a
How it was run: (§1)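 Sowing in sterilized diluvial soil, ~1.5 cm cover; growth 14 d, 25–30° C greenhouse; foliar spray of water-diluted EC at predetermined g/a; scoring 3 wk later on graded scale.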

common ragweed [2] = assay: as above; conditions: dose 3.2 g/a
How it was run: as §1

Italian ryegrass [3] = assay: as above; conditions: dose 3.2 g/a
How it was run: as §1

barnyardgrass [4] = assay: as above; conditions: dose 3.2 g/a
How it was run: as §1

beadstraw = assay: as above; conditions: dose 3.2 g/a
How it was run: as §1

redroot pigweed [5] = assay: as above; conditions: dose 3.2 g/a
How it was run: as §1

velvetleaf [6] = assay: as above; conditions: dose 3.2 g/a
How it was run: as §1

common chickweed [7] = assay: as above; conditions: dose 3.2 g/a
How it was run: as §1

water foxtail [8] = assay: as above; conditions: dose 3.2 g/a
How it was run: as §1

large crabgrass [9] = assay: as above; conditions: dose 3.2 g/a
How it was run: as §1

posumbu knotweed [10] = assay: as above; conditions: dose 3.2 g/a
How it was run: as §1

giant foxtail [11] = assay: as above; conditions: dose 3.2 g/a
How it was run: as §1

common lambsquater [12] = assay: Test Example 3: herbicidal effects in soil treatment; conditions: dose 3.2 g/a
How it was run: (§2)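 Seeds were sown in sterilized diluvial soil and covered with about 1.5 cm of soil. Compounds, formulated as emulsifiable concentrates and diluted with water, were sprayed evenly over the soil surface at set doses in g/a. Herbicidal effect was scored on a rating scale three weeks later.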

common ragweed [13] = assay: as above; conditions: dose 3.2 g/a
How it was run: as §2

Italian ryegrass [14] = assay: as above; conditions: dose 3.2 g/a
How it was run: as §2

barnyardgrass [15] = assay: as above; conditions: dose 3.2 g/a
How it was run: as §2

redroot pigweed [16] = assay: as above; conditions: dose 3.2 g/a
How it was run: as §2

velvetleaf [17] = assay: as above; conditions: dose 3.2 g/a
How it was run: as §2

common chickweed [18] = assay: as above; conditions: dose 3.2 g/a
How it was run: as §2

water foxtail [19] = assay: as above; conditions: dose 3.2 g/a
How it was run: as §2

large crabgrass [20] = assay: as above; conditions: dose 3.2 g/a
How it was run: as §2

posumbu knotweed [21] = assay: as above; conditions: dose 3.2 g/a
How it was run: as §2

giant foxtail [22] = assay: as above; conditions: dose 3.2 g/a
How it was run: as §2

transplanted rice = assay: Test Example 1: preemergence treatment under submerged conditions, effect on crop; conditions: dose 2.52 g/a
How it was run: (§3)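 Scoring 0 (<5% mortality) to 5 (≥90%) was done three weeks after preemergence application to the water surface of submerged (4 cm) alluvial soil, doses given as g per are. Weeds were seeded and 2.5-leaf rice transplanted on the treatment day; greenhouse at 25–30 °C.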

bulrush [23] = assay: Test Example 1: herbicidal effects in preemergence treatment under submerged conditions; conditions: dose 2.52 g/a
How it was run: as §3

ducksalad [24] = assay: as above; conditions: dose 2.52 g/a
How it was run: as §3

barnyardgrass [25] = assay: as above; conditions: dose 2.52 g/a
How it was run: as §3

bulrush [26] = assay: Test Example 2: herbicidal effects during the vegetation period under submerged conditions; conditions: treatment during the vegetation period under submerged conditions; dose 2.52 g/a
How it was run: (§4)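 Barnyardgrass, bulrush and ducksalad were co-sown in alluvial soil flooded to 4 cm and grown in a greenhouse at 25 to 30° C. At the 1- or 2-leaf stage, water-diluted emulsifiable concentrates went onto the water surface at set doses (g/a). Herbicidal effect was scored three weeks later on a graded scale.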

ducksalad [27] = assay: as above; conditions: treatment during the vegetation period under submerged conditions; dose 2.52 g/a
How it was run: as §4

barnyardgrass [28] = assay: as above; conditions: treatment during the vegetation period under submerged conditions; dose 2.52 g/a
How it was run: as §4

[29] = three weeks after the application

CCOC(=O)N(c1ccccc1CN1COC(C)(COC)CC1=O)S(=O)(=O)C(F)(F)F (stereo not drawn) [II-55]
L: common lambsquater, herbicidal effect (common lambsquater [1]; three weeks after application): 4 (mortality of at least 70% and less than 90%) | J: common ragweed, herbicidal effect (common ragweed [2]; three weeks after application): 4 (mortality of at least 70% and less than 90%) | H: Italian ryegrass, herbicidal effect (Italian ryegrass [3]; three weeks after application): 5 (mortality of 90% or above (nearly complete death)) | A: barnyardgrass, herbicidal effect (barnyardgrass [4]; three weeks after application): 5 (mortality of 90% or above (nearly complete death)) | O: beadstraw, herbicidal effect (beadstraw; three weeks after application): 4 (mortality of at least 70% and less than 90%) | K: redroot pigweed, herbicidal effect (redroot pigweed [5]; three weeks after application): 0 (mortality of less than 5% (almost ineffective)) | I: velvetleaf, herbicidal effect (velvetleaf [6]; three weeks after application): 5 (mortality of 90% or above (nearly complete death)) | N: common chickweed, herbicidal effect (common chickweed [7]; three weeks after application): 4 (mortality of at least 70% and less than 90%) | G: water foxtail, herbicidal effect (water foxtail [8]; three weeks after application): 5 (mortality of 90% or above (nearly complete death)) | D: large crabgrass, herbicidal effect (large crabgrass [9]; three weeks after application): 4 (mortality of at least 70% and less than 90%) | M: posumbu knotweed, herbicidal effect (posumbu knotweed [10]; three weeks after application): 3 (mortality of at least 40% and less than 70%) | E: giant foxtail, herbicidal effect (giant foxtail [11]; three weeks after application): 5 (mortality of 90% or above (nearly complete death)) | L: common lambsquater, herbicidal effect (evaluation scale 0-5) (common lambsquater [12]): 4 (mortality of at least 70% and less than 90%) | J: common ragweed, herbicidal effect (evaluation scale 0-5) (common ragweed [13]): 5 (mortality of 90% or above (nearly complete death)) | H: Italian ryegrass, herbicidal effect (evaluation scale 0-5) (Italian ryegrass [14]): 5 (mortality of 90% or above (nearly complete death)) | A: barnyardgrass, herbicidal effect (evaluation scale 0-5) (barnyardgrass [15]): 5 (mortality of 90% or above (nearly complete death)) | K: redroot pigweed, herbicidal effect (evaluation scale 0-5) (redroot pigweed [16]): 3 (mortality of at least 40% and less than 70%) | I: velvetleaf, herbicidal effect (evaluation scale 0-5) (velvetleaf [17]): 5 (mortality of 90% or above (nearly complete death)) | N: common chickweed, herbicidal effect (evaluation scale 0-5) (common chickweed [18]): 5 (mortality of 90% or above (nearly complete death)) | G: water foxtail, herbicidal effect (evaluation scale 0-5) (water foxtail [19]): 5 (mortality of 90% or above (nearly complete death)) | D: large crabgrass, herbicidal effect (evaluation scale 0-5) (large crabgrass [20]): 5 (mortality of 90% or above (nearly complete death)) | M: posumbu knotweed, herbicidal effect (evaluation scale 0-5) (posumbu knotweed [21]): 5 (mortality of 90% or above (nearly complete death)) | E: giant foxtail, herbicidal effect (evaluation scale 0-5) (giant foxtail [22]): 5 (mortality of 90% or above (nearly complete death)) | a: transplanted rice, effect on crop (evaluation scale 0-5) (transplanted rice): 0 (mortality of less than 5% (almost ineffective)) | B: bulrush, herbicidal effect (evaluation scale 0-5) (bulrush [23]): 5 (mortality of 90% or above (nearly complete death)) | C: ducksalad, herbicidal effect (evaluation scale 0-5) (ducksalad [24]): 5 (mortality of 90% or above (nearly complete death)) | A: barnyardgrass, herbicidal effect (evaluation scale 0-5) (barnyardgrass [25]): 5 (mortality of 90% or above (nearly complete death)) | B: bulrush, herbicidal effect (evaluation scale 0-5) (bulrush [26]): 5 (mortality of 90% or above (nearly complete death)) | C: ducksalad, herbicidal effect (evaluation scale 0-5) (ducksalad [27]): 5 (mortality of 90% or above (nearly complete death)) | A: barnyardgrass, herbicidal effect (evaluation scale 0-5) (barnyardgrass [28]): 5 (mortality of 90% or above (nearly complete death))

CCOC(=O)N(c1ccccc1CN1OCC(C)(C)OC1=O)S(=O)(=O)C(F)(F)F [III-11]
L: common lambsquater, herbicidal effect (common lambsquater [1]; [29]): 4 (mortality of at least 70% and less than 90%) | J: common ragweed, herbicidal effect (common ragweed [2]; [29]): 4 (mortality of at least 70% and less than 90%) | H: Italian ryegrass, herbicidal effect (Italian ryegrass [3]; [29]): 3 (mortality of at least 40% and less than 70%) | A: barnyardgrass, herbicidal effect (barnyardgrass [4]; [29]): 5 (mortality of 90% or above (nearly complete death)) | O: beadstraw, herbicidal effect (beadstraw; [29]): 5 (mortality of 90% or above (nearly complete death)) | K: redroot pigweed, herbicidal effect (redroot pigweed [5]; [29]): 2 (mortality of at least 20% and less than 40%) | I: velvetleaf, herbicidal effect (velvetleaf [6]; [29]): 4 (mortality of at least 70% and less than 90%) | N: common chickweed, herbicidal effect (common chickweed [7]; [29]): 5 (mortality of 90% or above (nearly complete death)) | G: water foxtail, herbicidal effect (water foxtail [8]; [29]): 5 (mortality of 90% or above (nearly complete death)) | D: large crabgrass, herbicidal effect (large crabgrass [9]; [29]): 0 (mortality of less than 5% (almost ineffective)) | M: posumbu knotweed, herbicidal effect (posumbu knotweed [10]; [29]): 4 (mortality of at least 70% and less than 90%) | E: giant foxtail, herbicidal effect (giant foxtail [11]; [29]): 4 (mortality of at least 70% and less than 90%) | herbicidal effect, L: common lambsquater (common lambsquater [12]): 5 (mortality of 90% or above (nearly complete death)) | herbicidal effect, J: common ragweed (common ragweed [13]): 5 (mortality of 90% or above (nearly complete death)) | herbicidal effect, H: Italian ryegrass (Italian ryegrass [14]): 4 (mortality of at least 70% and less than 90%) | herbicidal effect, A: barnyardgrass (barnyardgrass [15]): 5 (mortality of 90% or above (nearly complete death)) | herbicidal effect, K: redroot pigweed (redroot pigweed [16]): 3 (mortality of at least 40% and less than 70%) | herbicidal effect, I: velvetleaf (velvetleaf [17]): 4 (mortality of at least 70% and less than 90%) | herbicidal effect, N: common chickweed (common chickweed [18]): 5 (mortality of 90% or above (nearly complete death)) | herbicidal effect, G: water foxtail (water foxtail [19]): 5 (mortality of 90% or above (nearly complete death)) | herbicidal effect, D: large crabgrass (large crabgrass [20]): 5 (mortality of 90% or above (nearly complete death)) | herbicidal effect, M: posumbu knotweed (posumbu knotweed [21]): 5 (mortality of 90% or above (nearly complete death)) | herbicidal effect, E: giant foxtail (giant foxtail [22]): 5 (mortality of 90% or above (nearly complete death)) | a: transplanted rice, effect on crop (evaluation scale 0-5) (transplanted rice): 0 (mortality of less than 5% (almost ineffective)) | B: bulrush, herbicidal effect (evaluation scale 0-5) (bulrush [23]): 5 (mortality of 90% or above (nearly complete death)) | C: ducksalad, herbicidal effect (evaluation scale 0-5) (ducksalad [24]): 5 (mortality of 90% or above (nearly complete death)) | A: barnyardgrass, herbicidal effect (evaluation scale 0-5) (barnyardgrass [25]): 5 (mortality of 90% or above (nearly complete death)) | B: bulrush, herbicidal effect (evaluation scale 0-5) (bulrush [26]): 5 (mortality of 90% or above (nearly complete death)) | C: ducksalad, herbicidal effect (evaluation scale 0-5) (ducksalad [27]): 5 (mortality of 90% or above (nearly complete death)) | A: barnyardgrass, herbicidal effect (evaluation scale 0-5) (barnyardgrass [28]): 5 (mortality of 90% or above (nearly complete death))
